Source: US20100120886A1, “ARYL-SUBSTITUTED SULFONAMIDES FOR THE TREATMENT OF COGNITIVE OR FOOD INGESTION RELATED DISORDERS” (LABORATORIOS DEL DR. ESTEVE, S.A., priority 2007, published 2010)

Target: T1, 5HT6 human recombinant receptor (Homo sapiens, UniProt P50406)
T1 construct: purchased Receptor Biology; host or cells: HEK-293 cell membranes
Assay: Binding with Serotonin Receptor 5HT6 ([3H]-LSD radioligand, HEK-293 cell membranes)
Conditions: [3H]-LSD 2.7 nM, HEK-293 membranes; for Ki: non-linear regression EBDA/LIGAND; for inhibition at 0.01 µM: compound 10 nM; for inhibition at 0.01 µM / inhibition at 0.1 µM: 60 min, 37° C.; for inhibition at 0.1 µM: compound 100 nM
Method: Binding with Serotonin Receptor 5HT6
Cell membranes of HEK-293 cells expressing the 5HT6 human recombinant receptor were supplied by Receptor Biology. In said membranes the receptor concentration is 2.18 pmol/mg protein and the protein concentration is 9.17 mg/ml. The experimental protocol follows the method of B. L. Roth et al. [B. L. Roth, S. C. Craigo, M. S. Choudhary, A. Uluer, F. J. Monsma, Y. Shen, H. Y. Meltzer, D. R. Sibley: Binding of Typical and Atypical Antipsychotic Agents to 5-Hydroxytryptamine-6 and Hydroxytriptamine-7 Receptors. The Journal of Pharmacology and Experimental Therapeutics, 1994, 268, 1403] with slight changes. The commercial membrane is diluted (1:40 dilution) with the binding buffer: 50 mM Tris-HCl, 10 mM MgCl2, 0.5 mM EDTA (pH 7.4). The radioligand used is [^3H]-LSD at a concentration of 2.7 nM with a final volume of 200 μl. incubation is initiated by adding 100 μl of membrane suspension, (≈22.9 μg membrane protein), and is prolonged for 60 minutes at a temperature of 37° C. The incubation is ended by fast filtration in a Brandel Cell Harvester through fiber glass filters made by Schleicher & Schuell GF 3362 pretreated with a solution of polyethylenimine at 0.5%. The filters are washed three times with three milliliters of buffer Tris-HCl 50 mM pH 7.4. The filters are transferred to flasks and 5 ml of Ecoscint H liquid scintillation cocktail are added to each flask. The flasks are allowed to reach equilibrium for several hours before counting with a Wallac Winspectral 1414 scintillation counter. Non-specific binding is determined in the presence of 100 μM of serotonin. Tests were made in triplicate. The inhibition constants (Ki, nM) were calculated by non-linear regression analysis using the program EBDA/LIGAND [Munson and Rodbard, Analytical Biochemistry, 1980, 107, 220].

T1 sequence (P50406 whole entry): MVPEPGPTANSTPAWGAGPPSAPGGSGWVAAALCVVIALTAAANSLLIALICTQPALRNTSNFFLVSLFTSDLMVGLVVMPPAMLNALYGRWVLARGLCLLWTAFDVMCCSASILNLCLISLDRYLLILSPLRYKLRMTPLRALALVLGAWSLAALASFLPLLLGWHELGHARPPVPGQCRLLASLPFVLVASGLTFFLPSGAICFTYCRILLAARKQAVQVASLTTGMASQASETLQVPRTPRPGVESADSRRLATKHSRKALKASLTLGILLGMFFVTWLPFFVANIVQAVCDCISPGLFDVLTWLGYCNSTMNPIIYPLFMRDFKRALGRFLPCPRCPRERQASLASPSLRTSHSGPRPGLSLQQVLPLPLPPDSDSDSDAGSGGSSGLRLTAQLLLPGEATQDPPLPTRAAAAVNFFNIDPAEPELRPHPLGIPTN

| SMILES | Ki | inhibition at 0.01 µM | inhibition at 0.1 µM |
| --- | --- | --- | --- |
| CCNCCc1c[nH]c2ccc(NS(=O)(=O)c3cccc4ccccc34)cc12 [Example 1, Naphthalene-1-sulfonic acid [3-(2-ethylamino-ethyl)-1H-indol-5-yl]-amide] | 3 nM | – | – |
| CNCCc1c[nH]c2ccc(NS(=O)(=O)c3cccc4ccccc34)cc12 [Example 2, Naphthalene-1-sulfonic acid [3-(2-methylamino-ethyl)-1H-indol-5-yl]-amide] | 2.9 nM | 83% | 91.2% |
| CCNCCc1c[nH]c2ccc(NS(=O)(=O)c3ccc4c(Cl)cccc4c3)cc12 [Example 3, 5-Chloro-naphthalene-2-sulfonic acid [3-(2-ethylamino-ethyl)-1H-indol-5-yl]-amide] | 2 nM | 60.1% | 82.9% |
| CNCCc1c[nH]c2ccc(NS(=O)(=O)c3ccc4c(Cl)cccc4c3)cc12 [Example 4, 5-Chloro-naphthalene-2-sulfonic acid [3-(2-methylamino-ethyl)-1H-indol-5-yl]-amide] | 2.1 ± 1.3 nM | 64.9% | 73.5% |
| NCCc1c[nH]c2ccc(NS(=O)(=O)c3cccc4ccccc34)cc12 [Example 5, Naphthalene-1-sulfonic acid [3-(2-amino-ethyl)-1H-indol-5-yl]-amide] | 26.4 nM | 41.6% | 76.9% |
| CNCCc1cn(C)c2ccc(NS(=O)(=O)c3ccc4c(Cl)cccc4c3)cc12 [Example 6, 5-Chloro-naphthalene-2-sulfonic acid [1-methyl-3-(2-methylamino-ethyl)-1H-indol-5-yl]-amide] | – | 39.7% | 79.8% |
| NCCc1c[nH]c2ccc(NS(=O)(=O)c3ccc4ccccc4c3)cc12 [Example 7, Naphthalene-2-sulfonic acid [3-(2-amino-ethyl)-1H-indol-5-yl]-amide] | 7.1 ± 1.1 nM | 66% | 84.6% |
| NCCc1c[nH]c2ccc(NS(=O)(=O)c3ccc4c(Cl)cccc4c3)cc12 [Example 8, 5-Chloro-naphthalene-2-sulfonic acid [3-(2-amino-ethyl)-1H-indol-5-yl]-amide] | 1.4 nM | 65.6% | 86.1% |
| Cn1cc(CCN)c2cc(NS(=O)(=O)c3ccc4c(Cl)cccc4c3)ccc21 [Example 9, 5-Chloro-naphthalene-2-sulfonic acid [3-(2-amino-ethyl)-1-methyl-1H-indol-5-yl]-amide] | – | 34.1% | 78% |
